Entries after “also recorded” stand apart in the source; their conditions may differ.
Target: mu opioid receptor (Rattus norvegicus, UniProt P33535)
Assay: competitive radio receptor binding assay, [3H]DAMGO, rat brain membranes
Conditions: 1 mg/ml (14.7 mM) imidazole

Sequence of mu opioid receptor (P33535 whole entry): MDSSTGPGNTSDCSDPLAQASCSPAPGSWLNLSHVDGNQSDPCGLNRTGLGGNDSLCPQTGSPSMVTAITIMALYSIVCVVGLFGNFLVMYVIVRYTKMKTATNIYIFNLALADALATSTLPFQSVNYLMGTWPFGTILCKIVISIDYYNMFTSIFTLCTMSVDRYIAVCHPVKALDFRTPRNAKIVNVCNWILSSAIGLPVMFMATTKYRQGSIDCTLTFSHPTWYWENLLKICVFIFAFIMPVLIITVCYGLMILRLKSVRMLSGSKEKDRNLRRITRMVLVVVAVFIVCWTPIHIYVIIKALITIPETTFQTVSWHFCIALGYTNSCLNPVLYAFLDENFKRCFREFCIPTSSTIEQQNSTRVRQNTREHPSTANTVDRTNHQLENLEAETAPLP

Structure (SMILES): c1c[nH]cn1 [imidazole]
- effect on binding of 3H-DAMGO to the mu opioid receptor: negligible inhibition; also recorded: No significant effect
